Source: paper PMC6193536 (Bioorganic & medicinal chemistry letters, 2018)
Like-named read-outs stand apart in the source and are kept apart here.

Tests used:
Plasmodium falciparum [1] = assay: hypoxanthine incorporation assay; type: cell-based
PfPKG [2] = target: T1, PfPKG (Plasmodium falciparum, UniProt Q8I719); details: data unpublished
PfPKG [3] = target: T1, PfPKG; details: cited from earlier work
Plasmodium falciparum [4] = details: cited from earlier work

T1 sequence (Q8I719 whole entry): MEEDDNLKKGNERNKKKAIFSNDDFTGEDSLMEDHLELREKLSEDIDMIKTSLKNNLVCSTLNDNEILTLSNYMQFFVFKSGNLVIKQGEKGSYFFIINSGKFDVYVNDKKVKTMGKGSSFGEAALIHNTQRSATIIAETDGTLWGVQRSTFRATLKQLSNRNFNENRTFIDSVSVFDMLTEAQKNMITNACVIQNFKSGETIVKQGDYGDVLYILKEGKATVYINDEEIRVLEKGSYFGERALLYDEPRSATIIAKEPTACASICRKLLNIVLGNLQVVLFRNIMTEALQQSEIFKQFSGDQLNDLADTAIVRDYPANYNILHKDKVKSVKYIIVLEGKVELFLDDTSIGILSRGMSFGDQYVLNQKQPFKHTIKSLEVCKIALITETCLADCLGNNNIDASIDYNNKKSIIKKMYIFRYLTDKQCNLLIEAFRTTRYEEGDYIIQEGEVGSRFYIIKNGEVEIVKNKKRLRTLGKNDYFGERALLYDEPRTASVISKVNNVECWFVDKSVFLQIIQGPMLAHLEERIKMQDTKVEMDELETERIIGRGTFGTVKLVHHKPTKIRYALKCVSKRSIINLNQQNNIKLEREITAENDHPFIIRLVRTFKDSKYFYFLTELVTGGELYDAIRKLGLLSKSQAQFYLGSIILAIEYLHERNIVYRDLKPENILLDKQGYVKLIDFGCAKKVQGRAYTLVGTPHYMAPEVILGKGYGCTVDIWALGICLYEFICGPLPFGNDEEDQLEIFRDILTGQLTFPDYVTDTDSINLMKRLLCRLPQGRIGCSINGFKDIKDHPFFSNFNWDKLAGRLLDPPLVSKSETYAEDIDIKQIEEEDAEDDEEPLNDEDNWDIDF

SMILES: CN1CCC(c2cc(-c3ccncc3)c(-c3ccc(F)cc3)[nH]2)CC1 [compound 1]
- potency in HXI cell viability assay (Plasmodium falciparum [1]; data unpublished): moderate potency
- potency in biochemical assay against PfPKG (PfPKG [2]): low nanomolar potencies
- kinase selectivity (other human kinases) (panel of human kinases): poor kinase selectivity

SMILES: CN(C)Cc1ccn2c(-c3ccnc(N)n3)c(-c3ccc(F)cc3)nc2c1 [compound 2]
- potency in biochemical assay against PfPKG (PfPKG [3]): low nanomolar potencies
- potency in HXI cell viability assay (Plasmodium falciparum [4]): moderate potency

SMILES: CN1CCC(c2nc(-c3ccc(F)c(NS(C)(=O)=O)c3)c(-c3ccnc(NCC4CC4)n3)s2)CC1 [compound 23]
- improvement in cellular potency over compound 1 (Plasmodium falciparum [1]; versus compound 1): 4 fold
